Test results taken from patent US20100040620A1, “ANTI-CANCER ANTIBODIES AGAINST LEWISy AND LEWISb ANTIGENS” (priority 2006, published 2010).

Tested on: C170 xenografts
Experiment: Prevention model, C170 xenografts
Assay type: in vivo
Settings: SC101/29 0.2 mg ip 3 times weekly; 5-FU/leucovorin 12.5 mg/kg iv; days 12-23; p<0.004 ANOVA alone, p<0.02 combination
Experimental: Prevention model. The colorectal tumour cell line, C170 was maintained in serial passage in nude mice. For therapy the mice were sacrificed and the tumours excised. The tumour was finely minced and 3 mm^2 pieces were implanted, under anaesthetic (Hypnorm, Roche/Hypnovel, Jannsen), subcutaneously, into 40 male mice which had been randomly allocated to 4 experimental groups. A group of mice were treated with 5-FU/leucovorin (12.5 mg/kg) by intravenous (iv) injection on days 1, 3, 5, 7, 21 and 22. Three times weekly mice were also injected intraperitoneally (ip) with 0.2 mg of SC101/29 mAb. Control mice received either SC101/29 mAb, 5-FU/leucovorin or vehicle alone. Tumour size was measured by callipers and tumour cross-sectional area calculated on days 12, 16, 19 and 23. At the termination of the experiment tumours were weighed to assess anti-tumour efficacy. Animals were weighed to assess the toxicity of treatment.

## 5-FU/leucovorin
  tumour growth of freshly explanted C170 tumours (cross-sectional area): inhibition of tumour growth
